From patent publication US20140356433A1, “Pharmaceutical Carrier and Drug Structure Using the Same” (priority 2013, published 2014)

Assay: Retention in stomach, 123I label, single-photon emission computed tomography
Format: in vivo
Conditions: mice, 24 hours after feeding, 123I labeled, SPECT (FIG. 3)
Excerpt: Then, in order to examine the retention time of the present drug structure in stomach, sample B of embodiment 1 was labeled with radioactive Iodine 123 (^123I) and fed to experimental mice. Single-photon emission computed tomography was respectively conducted at 1st, 4th, and 24th hour after feeding to observe the location of the present drug structure inside the mice's bodies.

CC1(C)S[C@@H]2[C@H](NC(=O)[C@H](N)c3ccc(O)cc3)C(=O)N2[C@H]1C(=O)O [amoxicillin]
presence in stomach after feeding: had no longer existed in the stomach after 24 hours
